The results in this text go back to patent publication US20240076272A1, “Activators of Heme Regulated Inhibitor Kinase (HRI)” (The Brigham and Women`s Hospital, Inc., priority 2019, published 2024).

Broadly, the melting point is the temperature of the solid-liquid transition.

Data set [1] deals with eIF2α phosphorylation (ATF-4 5′UTR luciferase reporter). Put plainly: surrogate eIF2α phosphorylation dual-luciferase reporter (DLR) assay. In kind it is cell-based. An excerpt: The dual luciferase expression vector and other plasmids used in the Examples provided herein have been previously reported (see e.g., Ziegeler et al, J. Biol. Chem. 285 (2010) 15408-15419). The dual luciferase surrogate eIF2α phosphorylation assay, has also been previously reported (see e.g., Chen et al, Nat. Chem. Biol. 7 (2011) 610-616). Briefly, a dual Renilla and Firefly luciferase mammalian reporter vector that transcribes both mRNAs from the same bi-directional enhancer/promoter complex was utilized for generation of surrogate eIF2α phosphorylation assay (see e.g., Ziegeler et al, J. Biol. Chem. 285 (2010) 15408-15419). Both mRNAs contained the same 90 nucleotide plasmid derived 5′UTR. In addition, 5′UTR of the Firefly luciferase open reading frame was fused in-frame to the 267 nucleotide ATF-4 5′UTR (see e.g., Chen et al, Nat. Chem. Biol. 7 (2011) 610-616).
Cells expressing firefly and renilla luciferases were assayed with a dual glow luciferase assay kit, per manufacturer's instruction (Promega Inc., Madison, WI). The data calculations were carried out as the ratio of firefly to renilla luciferase signal (see e.g., Ziegeler et al, J. Biol. Chem. 285 (2010) 15408-15419). Dose-response curves were obtained, and triplicate data points were fitted to the logistical sigmoidal model using nonlinear least-squares regression performed in GraphPad Prism 6.
All newly synthesized N,N′-disubstituted ureas were initially evaluated by testing in the surrogate eIF2α phosphorylation dual-luciferase reporter (DLR) assay (see e.g., Chen et al, Nat. Chem. Biol. 7 (2011) 610-616; and Ziegeler et al, J. Biol. Chem. 285 (2010) 15408-15419). Briefly, this assay takes advantage of the fact that activated HRI phosphorylates eIF2α which inhibits eIF2 guanine nucleotide exchange factor eIF2B, responsible for exchanging the GDP in the eIF2·GDP complex for GTP. The reduction in the recycling of eIF2·GDP into eIF2·GTP interferes with the formation of eIF2·GTP·Met-tRNAi ternary complex. […] These include mRNA coding for activating transcription factor 4 (ATF-4) (see e.g., Aktas et al, Oncotarget, 4 (2013) 1606-1617; Aktas et al, Oncotarget, 6 (2015) 6902-6914; and Aktas et al, Proc. Natl. Acad. Sci. U.S.A. 95 (1998) 8280-8285).
In the present assay, firefly (F) luciferase mRNA was fused to the 5′UTR of ATF-4 mRNA that had multiple uORFs, while renilla (R) luciferase mRNA was fused to a 5′UTR lacking any uORFs. Agents that reduce the amount of the eIF2·GTP·Met-tRNAi ternary complex, such as N,N′-disubstituted ureas that activate HRI, increase F luciferase expression while reducing the R luciferase expression, resulting in an increased F/R luciferase ratio. The ureas of the present application were tested at 10 μM, 5 μM, 2.5 μM, and 1.25 μM concentrations in 96-well assay plates (see e.g., Chen et al, Nat. Chem. Biol. 7 (2011) 610-616; and Bai et al, ChemBioChem, 14 (2013) 1255-1262). The activity scores as the F/R ratios were calculated for every compound-treated well and normalized to F/R ratio of vehicle-treated (DMSO) wells in the same plate, arbitrarily set at 1 (F/R=1). Data obtained in the surrogate dual-luciferase eIF2α phosphorylation (DLR) assay for the series of 1-phenyl-3/4-(4-trifluorometyl) phenoxy-cycloalkyl)ureas (4-CF3-ΦcAlkΦUs) and 1-phenyl-3-(5-(4-(trifluoromethyl) phenoxy)pyrimidin-2-yl)ureas (4-CF3-ΦOPyΦUs) described herein are shown in Tables 1-2.

For data set [2], the system named is human melanoma CRL-2813 cells. Put plainly: sulforhodamine B (SRB) cell proliferation assay. The following applies: Homo sapiens, CRL2813, 120 h, 5 days, read-out: IC50 (concentration that inhibits growth of human melanoma CRL-2813 cells by 50%). In kind it is cell-based. On the procedure:
Cells were seeded in 96-well plates and maintained for 5 days in the presence of 0.5 μM to 20 μM of individual compound, and cell proliferation was measured by the sulforhodamine B (SRB) assay according to previous reports (see e.g., Palakurthi et al, Cancer Res. 60 (2000) 2919-2925): briefly, at the end of a 5-day treatment, cells were fixed in 10% cold trichloroacetic acid. Cell number was estimated by measuring the remaining bound dye of sulforhodamine B after washing. The percentage of growth was calculated by using the equation: 100×[(T-T0)/(C-T0)], where T and C represent the absorbance in treated and control cultures at Day 5, and T0 at time zero, respectively. If T was less than T0, cell death had occurred and was calculated from 100×[(T-T0)/T0].
All 4-CF3-ΦOcAlkΦUs were tested in the sulforhodamine B (SRB) cell proliferation assay to establish the concentrations that inhibit human melanoma CRL-2813 cells growth by 50% (IC50) (see Table 1). This activity reflects a combined effect of membrane permeability and overall anti-proliferative effects that include on target and off-target effects.

In the next data set the test system is endogenous eIF2α. The data set can be described thus: Western blot, phosphorylation of endogenous eIF2α in CRL-2813 cells. In kind it is cell-based, human. Particulars: 5 μM, 2 hours, Western blot (FIG. 2A). The protocol:
(§1) FIGS. 2A-2B show HRI activators of the present application induce eIF2α phosphorylation and modify its downstream effectors. In FIG. 2A, CRL-2813 cells were treated with 5 μM of each compound for 2 hours, cell lysates were probed with phosphorylated (P-eIF2α) and total eIF2α (T-eIF2α) and β-actin specific antibodies. In FIG. 2B, CRL-2813 cells were treated with 5 μM HRI activators for 8 hours and lysates were immunoblotted with antibodies against CHOP, p27^KiPl, cyclin D1 and β-actin.
Cells cultured under recommended media conditions were plated and maintained in serum-containing media without antibiotics in 14-cm plates (Nunc) until reaching 70% confluence. Cells were then treated with compounds for 6 h, washed with cold PBS once, and lysed with M-PER Mammalian Protein Extraction Reagent (Pierce) for 30 min on ice. The cell lysates were centrifuged at 12,000 RPM for 15 min and the supernatants were transferred to fresh tubes and the concentrations were determined by BCA (Pierce). […]
(In western blotting, separated proteins are transferred to a membrane and probed.)

The subject of the next data set is CHOP. Put plainly: Western blot, CHOP expression in CRL-2813 cells. In kind it is cell-based, human. The following applies: 5 μM, 8 hours, Western blot (FIG. 2B). On the procedure:
as §1
(§2) Cells cultured under recommended media conditions were plated and maintained in serum-containing media without antibiotics in 14-cm plates (Nunc) until reaching 70% confluence. Cells were then treated with compounds for 6 h, washed with cold PBS once, and lysed with M-PER Mammalian Protein Extraction Reagent (Pierce) for 30 min on ice. The cell lysates were centrifuged at 12,000 RPM for 15 min and the supernatants were transferred to fresh tubes and the concentrations were determined by BCA (Pierce). Equal amount of proteins were mixed with Laemmli Sample Buffer, heated at 100° C. for 5 min, separated by SDS-PAGE, and probed with anti-phosphoserine-51-eIF2α (Phos-eIF2α), anti-total eIF2α-specific antibodies (Total-eIF2α) (Biosource International, Hopkinton, MA), anti-CHOP, anti-cyclin D1 or anti-actin (Santa Cruz Biotechnology, CA) using procedures substantially similar to previous reports (see e.g., Aktas et al, Mol. Cell. Biol. 17 (1997) 3850-3857).
(§3) Endogenous eIF2α is the best-known substrate of HRI and the upstream regulator of the eIF2·GTP·Met-tRNAi ternary complex abundance, while CHOP expression is a downstream effector of eIF2α phosphorylation. For assessing eIF2α phosphorylation, blotted cell lysates were treated for two hours with vehicle or selected compounds using antibodies specific for the total-eIF2α and the phosphorylated-eIF2α (T-eIF2α and [PhoS^51]-eIF2α), respectively (see e.g., Aktas et al, J. Nutr. 134 (2004) 2487S-2491S) (see FIG. 2A).

A further data set deals with cyclin D1. The data set can be described thus: Western blot, cyclin D1 expression in CRL-2813 cells. In kind it is cell-based, human. The following applies: 5 μM, 8 hours, Western blot (FIG. 2B). On the procedure: as §1, §2, §3

Molecule `N#Cc1ccc(F)c(NC(=O)N[C@H]2CC[C@H](Oc3ccc(C(F)(F)F)cc3)CC2)c1` [Compound 6-VI, 1-(5-Cyano-2-fluorophenyl)-3-(trans-4-(4-(trifluoromethyl)phenoxy)cyclohexyl)urea] showed a melting point of 234.6 to 237 °C. Moreover, the “activity in the DLR assay (in words)” value in data set [1] was “inactive”. Also, the fold induction at 1.25 µM in data set [1] (1.25 μM, F/R luciferase ratio normalized to DMSO wells (F/R=1), read-out: Fold stimulation of ATF-4 Surrogate eIF2α @ 1.25 μM) turned out to be 1 ± 0.3. For the same molecule, the fold induction at 5 µM in data set [1] (5 μM, F/R luciferase ratio normalized to DMSO wells (F/R=1), read-out: Fold stimulation of ATF-4 Surrogate eIF2α @ 5 μM) is 1.5 ± 0.5. For the same molecule, in data set [2], the IC50 was > 10 µM. Moreover, the “phosphorylation of endogenous eIF2α” value in the data set on endogenous eIF2α was “least active”. Also, in the data set on CHOP, the “expression of CHOP relative to DMSO” value is given as “did not increase expression of CHOP”. The “expression of cyclin D1 relative to DMSO” value in the data set with cyclin D1 is recorded as “did not inhibit the expression of cyclin D1”.
